In US9278118B2, “Pharmaceutical combination for the treatment and/or chemosensibilization of refractory tumors to anticancer drugs” (Centro de Ingenieria Genetica Y Biotecnologia, priority 2006, dated 2016):
pIC50: −log10 of the molar value. Where two headings read alike, the source gives them in different places.

What was measured:
H-125 or OCI-AML3 cells = assay: Cell viability (MTS) assay, simultaneous P15 peptide + cytostatic drug, 72 hours; format: cell-based, human
Method: Finally, the cell viability and the IC50 values were determined as above described in this invention.

H-125 cells = assay: Cell viability (MTS) assay, sequential: P15 pre-treatment, then cytostatic drug
[1] = tested on: H-125 or OCI-AML3 tumor cells; assay: Cancer animal model, human tumor xenografted in nude mice, simultaneous administration; format: in vivo, nude mice (Nu/Nu, BalBC); conditions: for interaction with P15, antitumor effect in vivo: administered along with P15, FIG. 4; for antitumor effect (tumor volume): cytostatic 1 mg/kg/day i.p. concomitantly with P15 0.5 mg/kg/day i.p., 5 days, FIG. 1A-1C
Method: (§1) The animal model used in this invention was based on the implantation of human tumors in nude mice (Nu/Nu, BalBC). […] After tumor debut (approx. 30 mm^3), treatment was started using the pharmaceutical combination described in this invention. To evaluate the antitumor effect of the pharmaceutical combination, the tumor mass volume was measured and the respective volume was calculated using the formule: V=widght^2×lenght/2.
(§2) After tumor debut, the ingredients of the pharmaceutical combination were administered as follow: The P15 peptide in saline solution was administered intraperitoneal at 0.5 mg/kg/day during 5 days. Concomitantly, intraperitoneal injection of cisplatin (FIG. 1A), or cyclophosphamide (FIG. 1B) or Mitomycin (FIG. 1C) were performed at 1 mg/kg/day in the same frequency. The cytostatic drugs are also solved in saline solution. Tumor volume was registered as described above in this invention.

SW948 cells [2] = assay: In vivo chemosensibilization, SW948 tumors in nude mice, sequential administration; conditions: P15 0.5 mg/kg/day i.p. 5 days, then cytostatic 5 mg/kg/day 5 days, FIG. 2A-2C
Method: The animal model used in this invention was based on the implantation of human tumors in nude mice (Nu/Nu, BalBC). Briefly, 5×10^6 H-125 or OCI-AML3 cells were suspended in Phosphate Buffer Solution (PBS) and inoculated subcutaneously. After tumor debut (approx. 30 mm^3), treatment was started using the pharmaceutical combination described in this invention. To evaluate the antitumor effect of the pharmaceutical combination, the tumor mass volume was measured and the respective volume was calculated using the formule: V=widght^2×lenght/2.
For this purpose, 5×10^6 SW948 cells were implanted in nude mice as previously described in this invention. After tumor debut the pharmaceutical combination was sequentially administered as follow: First, the P15 peptide ingredient was administered intraperitoneal at 0.5 mg/kg/day during 5 days. Subsequently, cisplatin (FIG. 2A), Paclitaxel (FIG. 2B) and doxorubicin (FIG. 2C) were administered at 5 mg/kg/day during further 5 days. […] These findings also provide the evidences that the pharmaceutical combination in this invention is able to bypass the commonly observed intrinsic tumor resistance when the ingredients are sequentially administered.

SW948 cells [3] = assay: Cell viability (MTS) assay, P15 pre-treatment on intrinsic drug-refractory tumor cells; format: cell-based, human
OCI-AML3 cells = assay: Animal model of AML, P15 + anti-leukemic chemotherapeutics; format: in vivo, nude mice (Nu/Nu, BalBC); conditions: combination with P15, animal model of AML; FIG. 3
Method: as §1, §2

[4] = tested on: Translational controled tumor protein; assay: P15-regulated protein profile, nuclear extracts of H-125 cells; format: cell-based, human; conditions: down-regulated Translational controled tumor protein, P15 40 minutes
Tubulin beta-2 = conditions: up-regulated Tubulin beta-2; H-125 cells, P15 40 minutes
Method: (§3) H-125 cells were treated or not with the P15 peptide ingredient of the pharmaceutical combination described in this invention during 40 minutes. Subsequently, cell monolayers were washed with PBS and cells were scrapped from the surface. […] To analyze the P15-regulated proteins, the respective nuclear protein extracts were alternatively solved by 2D bidimensional gels (pH 4-7) and/or Liquid chromatography (nano HPLC) coupled to Mass spectrometer.
(§4) For this purpose, nuclear protein extracts coming from H-125 cells treated or not with the P15 peptide ingredient were analyzed as previously described in this invention.

[5] = tested on: Heat Shock Proteins (HSP-27, -70 y -90); conditions: down-regulated Heat Shock Proteins (HSP-27, -70 y -90); H-125 cells, P15 40 minutes
Method: as §3, §4

Tubulin beta-3 = conditions: up-regulated Tubulin beta-3; H-125 cells, P15 40 minutes
Method: as §3, §4

[6] = tested on: S-gluthathione transferase; conditions: down-regulated S-gluthathione transferase; H-125 cells, P15 40 minutes
Method: as §3, §4

[7] = tested on: Glucose-6-phosphate isomerase; conditions: down-regulated Glucose-6-phosphate isomerase; H-125 cells, P15 40 minutes
Method: as §3, §4

Piruvate kinase = conditions: down-regulated Piruvate kinase; H-125 cells, P15 40 minutes
Method: as §3, §4

[8] = tested on: Gliceraldehyde 6-phosphate deshydrogenase; conditions: down-regulated Gliceraldehyde 6-phosphate deshydrogenase; H-125 cells, P15 40 minutes
Method: as §3, §4

[9] = tested on: Ubiquitin activated E1 enzyme; conditions: down-regulated Ubiquitin activated E1 enzyme; H-125 cells, P15 40 minutes
Method: as §3, §4

[10] = tested on: Proteasome activator complex; conditions: down-regulated Proteasome activator complex; H-125 cells, P15 40 minutes
Method: as §3, §4

Tubulin alpha-1 = conditions: up-regulated Tubulin alpha-1; H-125 cells, P15 40 minutes
Method: as §3, §4

Prohibitin = assay: P15-regulated protein profile, nuclear extracts of H-125 cells; format: cell-based, human; conditions: up-regulated Prohibitin, P15 40 minutes
Eritropoietin precursor = assay: as above; format: cell-based, human; conditions: down-regulated Eritropoietin precursor, P15 40 minutes
[11] = tested on: Y-box1 transcription factor; assay: as above; format: cell-based, human; conditions: down-regulated Y-box1 transcription factor, P15 40 minutes
Nucleofosmin = assay: as above; format: cell-based, human; conditions: down-regulated Nucleofosmin, P15 40 minutes
T-Plastin = assay: as above; format: cell-based, human; conditions: down-regulated T-Plastin, P15 40 minutes
[12] = H-125 or OCI-AML3 cells, 72 hours, simultaneous P15 50 μM, read-out: IC50, Cytostatic drug + P15 (50 μM)
[13] = Homo sapiens, H-125 or OCI-AML3 cells, 72 hours, no P15, read-out: IC50, Cytostatic drug alone
[14] = read-out: IC50, Cytostatic drug + P15 (10 μM), H-125 or OCI-AML3 cells, 72 hours, simultaneous P15 10 μM
[15] = Homo sapiens, NCI-H125, read-out: IC50, Cytostatic drug alone
[16] = H-125 or OCI-AML3 cells, 72 hours, no P15, read-out: IC50, Cytostatic drug alone
[17] = read-out: IC50, Cytostatic drug alone, H-125 cells, 72 hours, no P15 pre-treatment
[18] = Homo sapiens, P15 pre-treatment, read-out: IC50, Cytostatic drug + P15 pre-treatment
[19] = Homo sapiens, no P15 pre-treatment, read-out: IC50, Cytostatic drug alone

Row | Compound | pIC50 (H-125 or OCI-AML3 cells; [12]) | pIC50 (H-125 or OCI-AML3 cells; [13]) | pIC50 (H-125 or OCI-AML3 cells; [14]) | pIC50 (H-125 cells; [15]) | also measured
1 | Nc1nc(F)nc2c1ncn2[C@@H]1O[C@H](CO)[C@@H](O)[C@@H]1O [Fludarabine, fludarabine] | 7.30 | 6.06 | 7.02 | 6.06 | 
2 | N.N.O=C([O-])C1(C(=O)[O-])CCC1.[Pt+2] [Carboplatin, carboplatin] | 7.44 |  | 7.15 |  | pIC50 (H-125 or OCI-AML3 cells; [16]): 6.19; interaction with P15, antitumor effect in vivo [1]: synergistic interactions; pIC50 (H-125 cells; [17]): 6.35
3 | N.N.[Cl][Pt][Cl] [Cisplatin, cisplatin] | 7.40 |  | 6.28 |  | pIC50 (H-125 or OCI-AML3 cells; [16]): 6.14; antitumor effect (tumor volume) [1]: complete tumor regression; chemosensibilization in vivo (tumor response to cytostatic) (SW948 cells [2]): revert the chemorefractory phenotype; pIC50 (H-125 cells; [17]): 6.14; pIC50 (SW948 cells [3]; P15 pre-treatment, read-out: IC50, Cytostatic drug + P15 pre-treatment): 3.92; pIC50 (SW948 cells [3]; no P15 pre-treatment, read-out: IC50, Cytostatic drug alone): ≤ 3.00
4 | CC(=O)O[C@H]1C(=O)[C@@]2(C)[C@H]([C@H](OC(=O)c3ccccc3)[C@]3(O)C[C@H](OC(=O)[C@H](O)[C@@H](NC(=O)c4ccccc4)c4ccccc4)C(C)=C1C3(C)C)[C@]1(OC(C)=O)CO[C@@H]1C[C@@H]2O [Paclitaxel, paclitaxel] | 8.52 | 7.77 | 8.10 | 7.77 | chemosensibilization in vivo (tumor response to cytostatic) (SW948 cells [2]): revert the chemorefractory phenotype; pIC50 (SW948 cells [3]; [18]): 4.01; pIC50 (SW948 cells [3]; [19]): ≤ 3.00
5 | COc1cc([C@@H]2c3cc4c(cc3[C@@H](O[C@@H]3O[C@@H]5CO[C@@H](C)O[C@H]5[C@H](O)[C@H]3O)[C@H]3COC(=O)[C@H]23)OCO4)cc(OC)c1O [Etoposide, etoposide] | 7.70 | 6.11 | 7.22 | 6.25 | interaction with P15, antitumor effect in vivo [1]: synergistic interactions
6 | COc1cccc2c1C(=O)c1c(O)c3c(c(O)c1C2=O)C[C@@](O)(C(=O)CO)C[C@@H]3O[C@H]1C[C@H](N)[C@H](O)[C@H](C)O1 [Doxorubicin, doxorubicin] | 7.12 | 6.37 | 6.70 | 6.37 | chemosensibilization in vivo (tumor response to cytostatic) (SW948 cells [2]): revert the chemorefractory phenotype; pIC50 (SW948 cells [3]; [18]): 3.49; pIC50 (SW948 cells [3]; [19]): ≤ 3.00
7 | O=P1(N(CCCl)CCCl)NCCCO1 (stereo not shown) [Cyclophosphamide, cyclophosphamide] |  |  |  | 5.62 | pIC50 (H-125 or OCI-AML3 cells; Homo sapiens, 72 h, read-out: IC50, Cytostatic drug alone): 5.62; pIC50 (H-125 or OCI-AML3 cells; read-out: IC50, Cytostatic drug + P15 (10 μM)): 6.00; pIC50 (H-125 or OCI-AML3 cells; read-out: IC50, Cytostatic drug + P15 (50 μM)): 7.07; antitumor effect (tumor volume) [1]: complete tumor regression; pIC50 (H-125 cells; read-out: IC50, Cytostatic drug + P15 pre-treatment): 7.00
8 | Nc1ccn([C@@H]2O[C@H](CO)[C@@H](O)[C@@H]2O)c(=O)n1 [Cytarabine (AraC), cytarabine] | 7.17 | 6.00 | 6.96 | 6.01 | interaction with P15, antitumor effect in vivo (OCI-AML3 cells): great synergistic interaction
9 | O=C1c2c(O)ccc(O)c2C(=O)c2c(NCCNCCO)ccc(NCCNCCO)c21 [Mitoxantrone, mitoxantrone] | 7.49 | 6.12 | 7.19 | 6.15 | interaction with P15, antitumor effect in vivo (OCI-AML3 cells): great synergistic interaction
10 | CO[C@@]12[C@H](COC(N)=O)C3=C(C(=O)C(C)=C(N)C3=O)N1C[C@@H]1N[C@@H]12 [Mitomycin C, mitomycin C] | 8.05 | 6.00 | 7.03 | 6.00 | antitumor effect (tumor volume) [1]: complete tumor regression
11 | CWMSPRHLGTC [P15] |  |  |  |  | Inhibition rate [4]: 4.32; Activation rate (Tubulin beta-2): 2.56; Inhibition rate [5]: 2.5; Activation rate (Tubulin beta-3): 3.15; Inhibition rate [6]: 4.87; Inhibition rate [7]: 8.53; Inhibition rate (Piruvate kinase): 8.34; Inhibition rate [8]: 6.62; Inhibition rate [9]: 2.49; Inhibition rate [10]: 3.35; Activation rate (Tubulin alpha-1): 3.23; Activation rate (Prohibitin): 2.28; Inhibition rate (Eritropoietin precursor): 120; Inhibition rate [11]: 3.33; Inhibition rate (Nucleofosmin): 48; Inhibition rate (T-Plastin): 3.34
12 | CC(C)C[C@H](NC(=O)[C@H](Cc1ccccc1)NC(=O)c1cnccn1)B(O)O [Velcade, Bortezomib] | 6.15 | 5.70 | 5.92 | 5.70 | 
13 | CC[C@]1(O)C[C@H]2CN(CCc3c([nH]c4ccccc34)[C@@](C(=O)OC)(c3cc4c(cc3OC)N(C=O)[C@H]3[C@@](O)(C(=O)OC)[C@H](OC(C)=O)[C@]5(CC)C=CCN6CC[C@]43[C@@H]65)C2)C1 [Vincristin, vincristin] | 8.10 | 6.07 | 7.00 | 6.07 | 
14 | O=c1[nH]cc(F)c(=O)[nH]1 [5-Fluorouracil, 5-fluorouracil] | 7.22 | 5.92 | 6.38 | 5.92 | 
